Source: US8415469B2, “Compounds and methods for kinase modulation, and indications therefor” (Plexxikon Inc., priority 2005, dated 2013)

Experiments:
Type in all cases: biochemical
B-Raf = target: T1, B-Raf (Homo sapiens, UniProt P15056); assay: AlphaScreen kinase assay, B-Raf; details: read-out: IC50, activity toward kinase B-Raf
T1 construct: purchased Upstate Biotechnology

B-Raf V600E = target: T2, B-Raf V600E (Homo sapiens, UniProt P15056, V600E); assay: AlphaScreen kinase assay, B-Raf V600E; details: read-out: IC50, activity toward kinase B-Raf V600E
T2 construct: P4254. pFastBacBD-CDC37 BRAF D437-K722-X, V600E; His6 with pFastBac HT leader (TEV site) (N); made in house; host or cells: Sf9 (baculovirus; chaperone CDC37 co-expressed)
T2 sequence (P15056 with tags, fused parts or gaps V600E): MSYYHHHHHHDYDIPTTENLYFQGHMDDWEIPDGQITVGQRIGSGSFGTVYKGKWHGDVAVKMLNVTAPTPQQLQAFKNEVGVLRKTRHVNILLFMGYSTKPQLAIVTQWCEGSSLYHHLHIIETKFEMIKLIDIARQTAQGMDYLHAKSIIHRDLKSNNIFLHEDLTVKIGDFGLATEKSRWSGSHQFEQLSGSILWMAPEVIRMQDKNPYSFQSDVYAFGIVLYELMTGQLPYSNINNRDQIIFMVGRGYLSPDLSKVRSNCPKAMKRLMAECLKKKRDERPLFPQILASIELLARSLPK

c-Raf-1 = target: T3, c-Raf-1 (Homo sapiens, UniProt P04049); assay: AlphaScreen kinase assay, c-Raf-1; details: read-out: IC50, activity toward kinase c-Raf-1
T3 construct: purchased Upstate Biotechnology
T3 sequence (P04049 whole entry): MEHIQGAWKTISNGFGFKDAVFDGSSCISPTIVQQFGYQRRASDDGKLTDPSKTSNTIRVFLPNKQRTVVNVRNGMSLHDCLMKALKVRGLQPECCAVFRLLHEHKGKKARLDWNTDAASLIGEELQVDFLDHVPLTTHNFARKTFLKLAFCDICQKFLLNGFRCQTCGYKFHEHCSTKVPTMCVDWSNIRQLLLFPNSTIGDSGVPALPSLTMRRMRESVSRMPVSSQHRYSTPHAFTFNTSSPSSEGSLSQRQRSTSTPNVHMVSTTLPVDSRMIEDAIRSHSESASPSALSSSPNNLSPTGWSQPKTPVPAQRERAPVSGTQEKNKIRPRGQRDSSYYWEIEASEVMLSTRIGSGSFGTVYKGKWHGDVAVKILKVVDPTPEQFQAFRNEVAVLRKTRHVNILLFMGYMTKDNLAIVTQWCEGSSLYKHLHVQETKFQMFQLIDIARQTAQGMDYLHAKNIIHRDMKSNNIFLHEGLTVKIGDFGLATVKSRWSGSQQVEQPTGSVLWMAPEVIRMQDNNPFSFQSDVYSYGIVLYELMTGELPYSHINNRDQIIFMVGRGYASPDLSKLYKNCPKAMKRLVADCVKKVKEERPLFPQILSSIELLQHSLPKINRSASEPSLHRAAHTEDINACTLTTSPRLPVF

Fak = target: T4, Fak (Homo sapiens, UniProt Q05397); assay: AlphaScreen kinase assay, Fak; details: read-out: IC50, activity toward kinase Fak
T4 construct: P1358.pFastBacHtb FAK S411-Q686-X; His6 with pFastBacHTb leader (TEV site) (N); made in house; host or cells: Sf9 (baculovirus)
T4 sequence (Q05397 411-686): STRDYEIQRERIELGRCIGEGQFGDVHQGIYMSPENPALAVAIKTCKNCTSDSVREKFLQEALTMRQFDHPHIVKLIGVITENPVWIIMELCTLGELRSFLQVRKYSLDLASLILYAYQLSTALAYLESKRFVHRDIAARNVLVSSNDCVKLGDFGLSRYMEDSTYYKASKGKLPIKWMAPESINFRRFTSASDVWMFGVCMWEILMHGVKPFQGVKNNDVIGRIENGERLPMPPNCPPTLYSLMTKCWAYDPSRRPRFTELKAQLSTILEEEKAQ

FGFR1 = target: T5, FGFR1 (Homo sapiens, UniProt P11362, C488A/C584S); assay: AlphaScreen kinase assay, FGFR1; details: read-out: IC50, activity toward kinase FGFR
T5 construct: P1351.pET N6 BI-PTP FGFR A458-E765-X C488A, C584S; made in house; host or cells: E. coli (PTP1B co-expressed)
T5 sequence (P11362 458-765 C488A/C584S): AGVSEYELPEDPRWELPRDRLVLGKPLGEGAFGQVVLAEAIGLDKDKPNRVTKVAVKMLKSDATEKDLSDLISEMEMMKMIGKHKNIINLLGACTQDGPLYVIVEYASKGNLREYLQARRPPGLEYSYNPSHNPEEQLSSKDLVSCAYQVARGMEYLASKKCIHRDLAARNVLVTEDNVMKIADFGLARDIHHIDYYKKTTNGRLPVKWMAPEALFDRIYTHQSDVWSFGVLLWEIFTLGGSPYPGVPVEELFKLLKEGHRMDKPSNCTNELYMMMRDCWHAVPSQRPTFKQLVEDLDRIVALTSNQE

Kit = target: T6, Kit (Homo sapiens, UniProt P10721); assay: AlphaScreen kinase assay, Kit; details: read-out: IC50, activity toward kinase Kit
T6 construct: P1332.N6 BI PTP KIT M552-K948-X COD; His6 (N); made in house; host or cells: E. coli (PTP1B co-expressed)
T6 sequence (P10721 with tags, fused parts or gaps): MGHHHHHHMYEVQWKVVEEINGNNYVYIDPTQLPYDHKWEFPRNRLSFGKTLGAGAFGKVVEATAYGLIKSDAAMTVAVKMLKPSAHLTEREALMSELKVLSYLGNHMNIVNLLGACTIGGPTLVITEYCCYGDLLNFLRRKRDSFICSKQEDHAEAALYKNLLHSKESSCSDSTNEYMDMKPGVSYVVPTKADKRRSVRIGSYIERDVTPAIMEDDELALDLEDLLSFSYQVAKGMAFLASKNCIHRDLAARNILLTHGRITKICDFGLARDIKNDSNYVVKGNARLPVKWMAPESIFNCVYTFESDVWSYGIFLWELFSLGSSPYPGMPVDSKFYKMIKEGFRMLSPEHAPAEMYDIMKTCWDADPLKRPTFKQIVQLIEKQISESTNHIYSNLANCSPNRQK

Pyk2 = target: T7, Pyk2 (Homo sapiens, UniProt Q14289); assay: AlphaScreen kinase assay, Pyk2; details: read-out: IC50, activity toward kinase Pyk2
T7 construct: purchased Upstate Biotechnology
T7 sequence (Q14289 whole entry): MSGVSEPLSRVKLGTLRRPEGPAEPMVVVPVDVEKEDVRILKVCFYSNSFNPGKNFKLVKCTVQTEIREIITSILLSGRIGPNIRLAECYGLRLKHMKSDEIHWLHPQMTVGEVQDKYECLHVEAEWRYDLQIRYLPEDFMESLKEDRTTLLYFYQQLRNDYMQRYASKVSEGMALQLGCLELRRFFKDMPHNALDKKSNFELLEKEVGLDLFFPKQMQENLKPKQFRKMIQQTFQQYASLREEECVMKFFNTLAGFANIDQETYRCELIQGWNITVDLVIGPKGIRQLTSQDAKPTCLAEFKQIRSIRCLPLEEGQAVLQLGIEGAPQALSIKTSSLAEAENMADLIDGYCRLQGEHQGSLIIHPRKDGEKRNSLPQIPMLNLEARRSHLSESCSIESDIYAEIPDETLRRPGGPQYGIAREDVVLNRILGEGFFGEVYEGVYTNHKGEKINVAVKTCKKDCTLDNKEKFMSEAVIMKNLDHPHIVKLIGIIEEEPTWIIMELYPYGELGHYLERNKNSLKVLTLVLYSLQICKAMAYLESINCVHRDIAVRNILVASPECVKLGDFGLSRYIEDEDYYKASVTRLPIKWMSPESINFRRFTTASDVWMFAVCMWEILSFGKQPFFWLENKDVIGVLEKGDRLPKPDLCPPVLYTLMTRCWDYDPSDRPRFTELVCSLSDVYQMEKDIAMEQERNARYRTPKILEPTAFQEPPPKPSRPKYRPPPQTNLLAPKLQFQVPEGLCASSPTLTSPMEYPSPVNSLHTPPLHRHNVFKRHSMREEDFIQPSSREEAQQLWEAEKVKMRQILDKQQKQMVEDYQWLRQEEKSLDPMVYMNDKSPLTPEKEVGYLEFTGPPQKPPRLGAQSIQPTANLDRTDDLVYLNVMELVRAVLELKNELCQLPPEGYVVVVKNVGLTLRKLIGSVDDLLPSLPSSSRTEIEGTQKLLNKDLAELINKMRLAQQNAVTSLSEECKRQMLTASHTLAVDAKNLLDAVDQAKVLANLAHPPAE

Src = target: T8, Src (Homo sapiens, UniProt P12931); assay: AlphaScreen kinase assay, Src; details: read-out: IC50, activity toward kinase Src
T8 construct: P1144. pET-N6 BI-PTP SRC V86-L536-X; made in house
T8 sequence (P12931 with tags, fused parts or gaps): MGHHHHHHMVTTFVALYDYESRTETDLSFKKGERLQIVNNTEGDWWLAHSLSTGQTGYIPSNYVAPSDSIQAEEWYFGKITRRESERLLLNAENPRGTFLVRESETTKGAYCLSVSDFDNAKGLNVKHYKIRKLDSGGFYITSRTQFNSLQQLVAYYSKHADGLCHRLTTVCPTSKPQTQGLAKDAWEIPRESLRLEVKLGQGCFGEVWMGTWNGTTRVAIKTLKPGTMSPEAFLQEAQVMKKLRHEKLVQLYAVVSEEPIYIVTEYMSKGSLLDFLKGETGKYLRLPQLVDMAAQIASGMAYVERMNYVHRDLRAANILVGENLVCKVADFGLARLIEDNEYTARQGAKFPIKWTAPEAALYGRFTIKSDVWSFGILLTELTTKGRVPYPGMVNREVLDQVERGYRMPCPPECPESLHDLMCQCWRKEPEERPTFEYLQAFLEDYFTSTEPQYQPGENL

Jnk1 = target: T9, Jnk1 (Homo sapiens, UniProt P45983); assay: AlphaScreen kinase assay, Jnk1; details: read-out: IC50, activity toward kinase Jnk1
T9 construct: purchased Upstate Biotechnology
T9 sequence (P45983 whole entry): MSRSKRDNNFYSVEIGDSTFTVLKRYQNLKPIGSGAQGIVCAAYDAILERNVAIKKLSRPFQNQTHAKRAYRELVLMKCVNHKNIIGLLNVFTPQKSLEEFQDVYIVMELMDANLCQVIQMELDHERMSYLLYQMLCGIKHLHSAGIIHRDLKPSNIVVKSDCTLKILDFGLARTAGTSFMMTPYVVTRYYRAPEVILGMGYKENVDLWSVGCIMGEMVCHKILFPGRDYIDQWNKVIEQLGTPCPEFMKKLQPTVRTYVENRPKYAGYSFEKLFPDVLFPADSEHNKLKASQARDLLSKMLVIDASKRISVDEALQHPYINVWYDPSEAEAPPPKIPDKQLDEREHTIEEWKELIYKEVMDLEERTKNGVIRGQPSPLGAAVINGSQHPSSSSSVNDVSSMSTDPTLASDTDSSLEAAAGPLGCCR

Jnk3 = target: T10, Jnk3 (Homo sapiens, UniProt P53779); assay: AlphaScreen kinase assay, Jnk3; details: read-out: IC50, activity toward kinase Jnk3
T10 construct: purchased Upstate Biotechnology
Description: AlphaScreen assay was used to screen additional kinases. The assay is similarly dependent on the phosphorylation of a peptide substrate. In this assay, an antibody that recognizes phosphorylated substrate is bound to an acceptor bead. The peptide substrate is attached to biotin, which binds to a donor head that contains streptavidin. Thus phosphorylated substrate is bound by antibody and streptavidin, bringing the donor and acceptor heads into close proximity when kinase is not inhibited. The donor produces singlet oxygen which results in emission from the acceptor when they are in close proximity. Conversely, when kinase is inhibited, the donor and acceptor beads are not associated and the emission from the acceptor is reduced.
AlphaScreen assays were done using compounds dissolved in DMSO to a concentration of 20 mM. The compounds were diluted accordingly to the desired final concentrations in each sample well, using 1:3 serial dilution for a total of 8 concentration points. Plates were prepared such that each kinase reaction is 20 μl in 1× kinase buffer, 5% DMSO and 10 μM ATP. After incubation of the kinase reaction for 1 hour at room temperature, 5 μl of donor beads in stop buffer (50 mM EDTA in 1× kinase buffer) was added, the sample was mixed and incubated for 20 minutes at room temperature before adding 5 μl of acceptor beads in stop buffer. The samples were incubated for 60 minutes at room temperature and the signal per well was read on AlphaQuest reader.

Flt1 = target: T11, Flt1 (Homo sapiens, UniProt P17948); assay: AlphaScreen kinase assay, Flt1; details: read-out: IC50, activity toward kinase Flt1
T11 construct: P1826.pETN6 BI-PTP FLT1 M799-D1165-X WT; His6 (N); made in house; host or cells: E. coli (PTP1B co-expressed)
T11 sequence (P17948 with tags, fused parts or gaps): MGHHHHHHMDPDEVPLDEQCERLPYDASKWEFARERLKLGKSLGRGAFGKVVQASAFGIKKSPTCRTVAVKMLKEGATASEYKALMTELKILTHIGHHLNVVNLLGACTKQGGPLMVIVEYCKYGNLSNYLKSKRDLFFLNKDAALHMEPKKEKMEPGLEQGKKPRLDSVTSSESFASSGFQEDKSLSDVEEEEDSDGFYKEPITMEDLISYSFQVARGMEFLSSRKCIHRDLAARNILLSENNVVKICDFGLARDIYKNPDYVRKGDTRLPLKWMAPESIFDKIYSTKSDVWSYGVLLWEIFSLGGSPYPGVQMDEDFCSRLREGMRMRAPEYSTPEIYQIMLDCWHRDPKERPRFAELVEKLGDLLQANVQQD

Fms = target: T12, Fms (Homo sapiens, UniProt P07333); assay: AlphaScreen kinase assay, Fms; details: read-out: IC50, activity toward kinase Fms
T12 construct: purchased Upstate Biotechnology

Jnk2 = target: T13, Jnk2 (Homo sapiens, UniProt P45984); assay: AlphaScreen kinase assay, Jnk2; details: read-out: IC50, activity toward kinase Jnk2
T13 construct: purchased Roche Protein Expression Group (Indianapolis, IN)
Procedure, shortened: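 Kinase activity was measured as phosphorylation of a biotinylated peptide, detected with streptavidin donor and phospho-antibody acceptor beads. Compounds, from 20 mM DMSO stocks, were tested at eight concentrations in 1:3 serial dilution.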

Ret = target: T14, Ret (Homo sapiens, UniProt P07949); assay: AlphaScreen kinase assay, Ret; details: read-out: IC50, activity toward kinase Ret
T14 construct: P1378.pET-SF BI-PTP RET H661-R1012 HIS; made in house
T14 sequence (P07949 with tags, fused parts or gaps): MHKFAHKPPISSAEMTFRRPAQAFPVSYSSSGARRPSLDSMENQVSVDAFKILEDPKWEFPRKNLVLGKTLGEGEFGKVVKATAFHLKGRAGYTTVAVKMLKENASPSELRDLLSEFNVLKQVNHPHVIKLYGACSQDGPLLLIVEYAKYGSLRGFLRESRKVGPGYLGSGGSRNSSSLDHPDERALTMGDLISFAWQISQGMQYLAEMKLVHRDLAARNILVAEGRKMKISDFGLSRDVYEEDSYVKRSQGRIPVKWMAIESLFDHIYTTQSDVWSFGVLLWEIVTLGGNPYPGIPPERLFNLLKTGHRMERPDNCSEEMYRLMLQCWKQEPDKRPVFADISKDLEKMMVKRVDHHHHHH

Yes = target: T15, Yes (Homo sapiens, UniProt P07947); assay: Z'-Lyte FRET kinase assay (Invitrogen), Yes; details: read-out: IC50, activity toward kinase Yes
T15 construct: purchased Invitrogen (Carlsbad, Calif.), screening service
Description: The effect of potential modulators of kinase activity can be measured in a variety of different assays known in the art. For example, direct radiometric, indirect FRET or AlphaScreen assays may be used to assess the level of phosphorylation of a substrate in the presence of test compounds in order to determine the inhibitory affect of the compound on the kinase. Invitrogen (Carlsbad, Calif.) uses a FRET based assay for Btk, EGFR, EphB2, Flt3, lrak4, Kdr, MAP2K1, MAPKAPK2, PDGFRB, PKC theta, Stk6 and Yes. For these assays, compounds of the invention were screened by Invitrogen using Z′-Lyte™ kinase assay.
Briefly, the Invitrogen kinase assay involves use of a specific peptide substrate optimized for each kinase, containing a fluorophore at each end that make up the FRET pair. The peptide sensitivity to proteolytic cleavage depends on phosphorylation of the peptide. Non-phosphorylated peptide is cleaved by a protease while peptide phosphorylated by the kinase is not cleaved. Cleavage of the peptide disrupts the FRET between the donor (coumarin) and acceptor (fluorescein) fluorophores, resulting in an increase in the ratio of donor emission to acceptor emission. The emission ratio of coumarin to fluorescein is used to assess the reaction progress. The extent of phosphorylation is determined from the emission ratio, which is low when the kinase is active (phosphorylated peptide is not cleaved, FRET pair connected) or higher for inhibited kinase (non-phosphorylated peptide is cleaved, FRET pair separated). Thus, the assay involves a kinase reaction in the presence of varying concentrations of a given compound, a development reaction with site specific protease, and detection of the fluorescent emission ratio of coumarin and fluorscein. […] Reaction conditions for each kinase are determined to provide optimal reaction times, incubation temperature, kinase and ATP concentrations. Test samples are made up in 1× kinase buffer (50 mM HEPES pH 7.5, 50 mM MgCl2, 5 mM EGTA, 0.05% BRIJ-35) and compound at desired concentration prepared in DMSO such that the final DMSO is 1%. […] Typically, assay plates are prepared to 10 μl final volume per sample, adding 2.5 μl of compound at 4× the desired concentration in 4% DMSO (serial dilution of compound provides concentration curve), 5 μl of the desired kinase mixed with Z′-LYTE™ peptide substrate (2× in 2× kinase buffer, final peptide at 2 μM), and 2.5 μl of 4×ATP solution. All kinase except for MAP2K1 were at 10 μM ATP in the kinase reaction, while MAP2K1 was at 100 μM. Samples are mixed and the kinase reaction is incubated 1 hour at room temperature, after which 5 μl of development solution is added and mixed. After incubation for another 1 hour at room temperature, 5 μl of stop reagent is added to each sample and mixed. The fluorescence signals are measured to determine the emission ratio.

Measured: IC50

T1 sequence (P15056 whole entry): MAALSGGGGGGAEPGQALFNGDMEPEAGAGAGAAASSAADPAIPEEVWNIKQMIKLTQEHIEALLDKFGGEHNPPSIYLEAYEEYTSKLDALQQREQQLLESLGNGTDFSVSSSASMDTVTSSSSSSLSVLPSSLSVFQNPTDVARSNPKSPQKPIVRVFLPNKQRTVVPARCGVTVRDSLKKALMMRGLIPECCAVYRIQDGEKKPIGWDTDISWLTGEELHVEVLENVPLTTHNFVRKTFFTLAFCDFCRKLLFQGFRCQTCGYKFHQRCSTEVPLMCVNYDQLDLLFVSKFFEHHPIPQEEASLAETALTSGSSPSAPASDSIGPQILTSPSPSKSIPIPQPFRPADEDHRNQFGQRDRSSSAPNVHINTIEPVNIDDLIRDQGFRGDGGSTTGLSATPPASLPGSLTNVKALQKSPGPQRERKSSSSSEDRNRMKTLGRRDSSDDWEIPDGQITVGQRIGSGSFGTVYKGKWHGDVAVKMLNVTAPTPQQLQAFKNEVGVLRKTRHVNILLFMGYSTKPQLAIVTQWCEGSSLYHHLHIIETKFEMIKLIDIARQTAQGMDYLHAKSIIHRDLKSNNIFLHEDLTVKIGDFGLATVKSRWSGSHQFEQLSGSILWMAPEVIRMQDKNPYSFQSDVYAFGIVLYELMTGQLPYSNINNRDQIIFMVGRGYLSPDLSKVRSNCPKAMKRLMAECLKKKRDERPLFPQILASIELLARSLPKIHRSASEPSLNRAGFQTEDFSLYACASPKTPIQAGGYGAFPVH

CCCS(=O)(=O)Nc1ccc(F)c(Cc2c[nH]c3ncc(Br)cc23)c1F [Compound P-0910, Propane-1-sulfonic acid [3-(5-bromo-1H-pyrrolo[2,3-b]pyridin-3-ylmethyl)-2,4-difluoro-phenyl]-amide]
≤ 10 µM: B-Raf | B-Raf V600E | c-Raf-1 | Fak | FGFR1 | Kit | Pyk2 | Src

Nc1cccc(-c2cnc3[nH]cc(Cc4ccccc4F)c3c2)c1 [Compound P-1349]
not listed: c-Raf-1 | Flt1 | Fms | Jnk2 | Ret | Yes
≤ 10 µM: all other assays above

COC(=O)Nc1ccc(F)c(C(=O)c2c[nH]c3ncc(-c4cccnc4)cc23)c1F [Compound P-0486, [2,4-Difluoro-3-(5-pyridin-3-yl-1H-pyrrolo[2,3-b]pyridine-3-carbonyl)-phenyl]-carbamic acid methyl ester]
not listed: Kit | Src | Jnk3 | Yes
≤ 10 µM: all other assays above

CN(C)S(=O)(=O)Nc1ccc(F)c(C(=O)c2c[nH]c3ncc(-c4cccnc4)cc23)c1F [Compound P-0837, Dimethylamine-1-sulfonic acid [3-(5-pyridin-3-yl-1H-pyrrolo[2,3-b]pyridine-3-carbonyl)-2,4-difluoro-phenyl]-amide]
not listed: Jnk1 | Jnk3 | Flt1 | Jnk2 | Ret | Yes
≤ 10 µM: all other assays above

CC(=O)Oc1cccc(C(=O)c2c[nH]c3ncc(Br)cc23)c1C [Compound P-0271]
≤ 10 µM: B-Raf | B-Raf V600E | FGFR1 | Yes

O=C(Nc1ccc(F)c(Cc2c[nH]c3ncc(-c4cccnc4)cc23)c1F)OCc1ccccc1 [Compound P-0396, [2,4-Difluoro-3-(5-pyridin-3-yl-1H-pyrrolo[2,3-b]pyridin-3-ylmethyl)-phenyl]-carbamic acid benzyl ester]
not listed: Jnk1 | Jnk3 | Flt1 | Jnk2 | Yes
≤ 10 µM: all other assays above

CCCS(=O)(=O)Nc1ccc(F)c(Cc2c[nH]c3ncc(Nc4ccccc4)cc23)c1F [Compound P-0818, Propane-1-sulfonic acid [2,4-difluoro-3-(5-phenylamino-1H-pyrrolo[2,3-b]pyridin-3-ylmethyl)-phenyl]-amide]
not listed: Jnk1 | Jnk3 | Flt1 | Jnk2 | Ret | Yes
≤ 10 µM: all other assays above

CCCC(=O)Nc1ccc(F)c(Cc2c[nH]c3ncc(-c4cccc(C(N)=O)c4)cc23)c1F [Compound P-1281]
not listed: c-Raf-1 | Jnk3 | Flt1 | Jnk2 | Ret | Yes
≤ 10 µM: all other assays above

O=C(c1ccc(NCc2cccc(F)c2)nc1)c1c[nH]c2ncccc12 [Compound P-0327]
≤ 10 µM: Fms | Yes
